Test results from article PMC6125541, “Bioequivalence of a Fixed-Dose Combination Tablet of the Complete Two-Drug Regimen of Dolutegravir and Rilpivirine for Treatment of HIV-1 Infection” (Antimicrobial Agents and Chemotherapy, 2018).

How the values were obtained:
[1] = design: method as in PMID 23979733; settings: DTG 50 mg once daily and RPV 25 mg once daily with a moderate-fat meal; cited from earlier work
[2] = Phase I open-label randomized 2-way crossover bioequivalence study, plasma pharmacokinetics of DTG and RPV; assay type: in vivo, healthy adults; settings: blind sample size reestimation after 57 participants
Description: This phase I study (ViiV-clinicalstudyregister.com identifier 201676) utilized an open-label, randomized, 2-way crossover design at a single center (Quintiles, Overland Park, KS, USA) (Fig. 2). The total duration of the study was approximately 8 weeks from the time of screening to the last follow-up visit. A crossover design was selected for this study to allow within-participant comparisons to be performed, thereby reducing the number of participants required for the study. Rilpivirine has a long half-life (∼50 h) ([15]); therefore, a 21-day washout between doses and a long pharmacokinetic sampling period were implemented to ensure that predose concentrations were negligible and that pharmacokinetic parameters could be well estimated.
The reference treatment consisted of DTG 50-mg tablets (Tivicay; ViiV Healthcare, Research Triangle Park, NC, USA), which were identical in composition to the commercial form except for a different film coat color, and commercial RPV 25-mg tablets (Edurant; Janssen Therapeutics, Titusville, NJ, USA). The test treatment was the FDC tablet with DTG at 50 mg and RPV at 25 mg (Juluca; ViiV Healthcare, Research Triangle Park, NC, USA).
Participants were randomly assigned 1:1 to 1 of 2 treatment sequences according to a randomization schedule generated before the start of the study. […]

[3] = design: method as in PMID 24798770; settings: cited from earlier work
[4] = cited from earlier work

Row | SMILES | Change in AUC0–t or Cmax on coadministration [1] | Observed within-participant coefficient of variation (CVw) of Cmax [2] | Plasma exposure in the fed state [3] | Half-life [4] | Decrease in absorption after fasting versus a normal-fat meal ([4]; fasting vs normal-fat meal)
1 | C[C@@H]1CCO[C@H]2Cn3cc(C(=O)NCc4ccc(F)cc4F)c(=O)c(O)c3C(=O)N12 [DTG, dolutegravir] | no significant change | 14.8% | increase | – | –
2 | Cc1cc(/C=C/C#N)cc(C)c1Nc1ccnc(Nc2ccc(C#N)cc2)n1 [RPV, rilpivirine] | no significant change | 32.9% | – | ~50 h | approximately 40%
